Results as given in patent US20240252488A1 (KOREA RESEARCH INSTITUTE OF CHEMICAL TECHNOLOGY, priority 2020, published 2024).

Experiments:
[1] = target: T1, MLKL (Homo sapiens, UniProt Q8NB16); assay: Measurement of binding affinity with MLKL receptor (competitive binding assay, Kd); parameters: made in house; host or cells: HEK 293 cell line (T7 phage in E. coli BL21-derived host is also described)
T1 sequence (Q8NB16 1-471): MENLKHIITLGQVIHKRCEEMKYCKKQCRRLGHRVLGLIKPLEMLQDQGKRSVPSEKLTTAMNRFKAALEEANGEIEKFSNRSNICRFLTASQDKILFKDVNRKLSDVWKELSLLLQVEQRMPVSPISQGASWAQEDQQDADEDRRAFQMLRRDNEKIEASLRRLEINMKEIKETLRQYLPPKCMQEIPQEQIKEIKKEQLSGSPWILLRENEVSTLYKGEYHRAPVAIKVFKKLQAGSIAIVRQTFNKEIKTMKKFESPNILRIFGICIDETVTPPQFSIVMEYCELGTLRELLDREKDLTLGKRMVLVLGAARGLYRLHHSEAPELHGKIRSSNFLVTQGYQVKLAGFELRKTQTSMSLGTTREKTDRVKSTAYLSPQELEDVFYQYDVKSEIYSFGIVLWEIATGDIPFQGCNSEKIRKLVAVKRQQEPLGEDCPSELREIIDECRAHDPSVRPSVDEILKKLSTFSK
Summary of the method: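 Kd comes from a bead-based competition format: compound-dependent loss of DNA-tagged, HEK 293-expressed MLKL capture, measured as eluate kinase by qPCR. Final DMSO is 0.9%.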

[2] = target: T1, MLKL; assay: MLKL degradation assay in HepG2 cell line (western blot); type: cell-based; parameters: endogenous in cells; host or cells: HepG2 or HaCaT; settings: cell line not given; for Degradation assay (Degradation %) 1 μM: compound 1 μM; for Degradation assay (Degradation %) 10 μM: compound 10 μM
Summary of the method: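 HepG2, cpd final 1 or 10 μM, 20-24 h, 37 °C/5% CO2; RIPA lysis, BCA-normalized, 10-15 μg/lane SDS-PAGE, western blot, ECL read-out.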

[3] = test system: FADD−/− Jurkat cells; assay: Necroptosis inhibition assay, TNF-α-induced necroptosis (CellTiter-Glo 2.0); type: cell-based, human; settings: TNF-α 15 ng/mL; for Necroptosis inhibition assay (Rescue %) 1 μM: compound 1 μM; for Necroptosis inhibition assay (Rescue %) 10 μM: compound 10 μM
Summary of the method: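 Cmpd 0.1/1/10 μM final, 30 min RT preincubation; TNF-α 15 ng/mL final; 20–24 h, 37° C, 5% CO2. Readout: ATP luminescence (reagent 1:3 in PBS), 0.5 s/well. Cytotoxicity and % necroptosis inhibition calculated from signal.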

Compound	Kd [1]	Degradation assay (Degradation %) 1 μM [2]	Degradation assay (Degradation %) 10 μM [2]	Necroptosis inhibition assay (Rescue %) 1 μM ([3]; FADD−/− Jurkat cells)	Necroptosis inhibition assay (Rescue %) 10 μM ([3]; FADD−/− Jurkat cells)	Necroptosis inhibition assay (Rescue %) 1 μM [3]	Necroptosis inhibition assay (Rescue %) 10 μM [3]
Nc1ncc(-c2cnn(C3CCN(CC4CCN(CC5CCN(c6ccc7c(c6)C(=O)N(C6CCC(=O)NC6=O)C7=O)CC5)CC4)CC3)c2)nc1C(=O)O[C@@H](C(=O)Nc1ccc(F)cc1)c1ccccc1 (stereo partly drawn) [TDH-473, (R)-2-((4-fluorophenyl)amino)-2-oxo-1-phenylethyl 3-amino-6-(1-(1-((1-((1-(2-(2,6-dioxopiperidin-3-yl)-1,3-dioxoisoindolin-5-yl)piperidin-4-yl)methyl)piperidin-4-yl)methyl)piperidin-4-yl)-1H-pyrazol-4-yl)pyrazine-2-carboxylate]	1.7 nM	63.51%	73.71%	28.37%	−13.59%		
Nc1ncc(-c2cnn(C3CCN(CCOCCOCCNC(=O)C4CCN(c5cccc6c5C(=O)N(C5CCC(=O)NC5=O)C6=O)CC4)CC3)c2)nc1C(=O)N[C@@H](C(=O)Nc1ccc(F)cc1)c1ccccc1 (stereo partly drawn) [TDH-213, 3-amino-6-(1-(1-(2-(2-(2-(1-(2-(2,6-dioxopiperidin-3-yl)-1,3-dioxoisoindolin-4-yl)piperidine-4-carboxamido)ethoxy)ethoxy)ethyl)piperidin-4-yl)-1H-pyrazol-4-yl)-N-((R)-2-((4-fluorophenyl)amino)-2-oxo-1-phenylethyl)pyrazine-2-carboxamide]	330 nM	4.45%	8.28%			18.34%	44.98%
Nc1ncc(-c2cnn(C3CCN(CC4CCN(C(=O)COc5ccc6nnn(C7CCC(=O)NC7=O)c(=O)c6c5)CC4)CC3)c2)nc1C(=O)O[C@@H](C(=O)Nc1ccc(F)cc1)c1ccccc1 (stereo partly drawn) [TDH-169, (R)-2-((4-fluorophenyl)amino)-2-oxo-1-phenylethyl 3-amino-6-(1-(1-((1-(2-((3-(2,6-dioxopiperidin-3-yl)-4-oxo-3,4-dihydrobenzo[d][1,2,3]triazin-6-yl)oxy)acetyl)piperidin-4-yl)methyl)piperidin-4-yl)-1H-pyrazol-4-yl)pyrazine-2-carboxylate]	2 nM	71.77%	58.09%			68.09%	50.74%
Nc1ncc(-c2cnn(C3CCN(C(=O)COC4CCN(C(=O)C5CCN(c6cccc7c6C(=O)N(C6CCC(=O)NC6=O)C7=O)CC5)CC4)CC3)c2)nc1C(=O)O[C@@H](C(=O)Nc1ccc(F)cc1)c1ccccc1 (stereo partly drawn) [TDH-397, (R)-2-((4-fluorophenyl)amino)-2-oxo-1-phenylethyl 3-amino-6-(1-(1-(2-((1-(1-(2-(2,6-dioxopiperidin-3-yl)-1,3-dioxoisoindolin-4-yl)piperidine-4-carbonyl)piperidin-4-yl)oxy)acetyl)piperidin-4-yl)-1H-pyrazol-4-yl)pyrazine-2-carboxylate]	2.7 nM	87.39%	79.77%			53.83%	37.24%
Nc1ncc(-c2cnn(C3CCN(CC4CCN(CC5CCN(C(=O)c6ccc7c(N8CCC(=O)NC8=O)coc7c6)CC5)CC4)CC3)c2)nc1C(=O)O[C@@H](C(=O)Nc1ccc(F)cc1)c1ccccc1 [TDH-555, (R)-2-((4-fluorophenyl)amino)-2-oxo-1-phenylethyl 3-amino-6-(1-(1-((1-((1-(3-(2,4-dioxotetrahydropyrimidin-1(2H)-yl)benzofuran-6-carbonyl)piperidin-4-yl)methyl)piperidin-4-yl)methyl)piperidin-4-yl)-1H-pyrazol-4-yl)pyrazine-2-carboxylate]	0.22 nM	78.56%		47.10%	−51.39%		
Nc1ncc(-c2cnn(C3CCN(CCC4CCN(C(=O)c5ccc(C(=O)NC6CCC(=O)NC6=O)cc5)CC4)CC3)c2)nc1C(=O)O[C@@H](C(=O)Nc1ccc(F)cc1)c1ccccc1 (stereo partly drawn) [TDH-536, (R)-2-((4-fluorophenyl)amino)-2-oxo-1-phenylethyl 3-amino-6-(1-(1-(2-(1-(4-((2,6-dioxopiperidin-3-yl)carbamoyl)benzoyl)piperidin-4-yl)ethyl)piperidin-4-yl)-1H-pyrazol-4-yl)pyrazine-2-carboxylate]	0.22 nM	46.11%	56.40%	31.84%	21.93%		
Nc1ncc(-c2cnn(C3CCN(CCOCCOCCOCCNC(=O)C4CCN(c5cccc6c5C(=O)N(C5CCC(=O)NC5=O)C6=O)CC4)CC3)c2)nc1C(=O)O[C@@H](C(=O)Nc1ccc(F)cc1)c1ccccc1 (stereo partly drawn) [TDH-139, (R)-2-((4-fluorophenyl)amino)-2-oxo-1-phenylethyl 3-amino-6-(1-(1-(1-(1-(2-(2,6-dioxopiperidin-3-yl)-1,3-dioxoisoindolin-4-yl)piperidin-4-yl)-1-oxo-5,8,11-trioxa-2-azatridecan-13-yl)piperidin-4-yl)-1H-pyrazol-4-yl)pyrazine-2-carboxylate]	4.9 nM		78.56%			18.11%	61.89%
Nc1ncc(-c2cnn([C@@H]3CCN(CCOCCOCCNC(=O)CNc4cccc5c4C(=O)N(C4CCC(=O)NC4=O)C5=O)C3)c2)nc1C(=O)OC(C(=O)Nc1ccc(F)cc1)c1ccccc1 (stereo partly drawn) [TDH-267, 2-((4-fluorophenyl)amino)-2-oxo-1-phenylethyl 3-amino-6-(1-((3R)-1-(2-(2-(2-(2-((2-(2,6-dioxopiperidin-3-yl)-1,3-dioxoisoindolin-4-yl)amino)acetamido)ethoxy)ethoxy)ethyl)pyrrolidin-3-yl)-1H-pyrazol-4-yl)pyrazine-2-carboxylate]	5.7 nM		37.75%			21.58%	60.07%
Nc1ncc(-c2cnn(C3CCN(CCC4CCN(C(=O)CCc5ccc6c(c5)C(=O)N(C5CCC(=O)NC5=O)C6=O)CC4)CC3)c2)nc1C(=O)O[C@@H](C(=O)Nc1ccc(F)cc1)c1ccccc1 (stereo partly drawn) [TDH-377, (R)-2-((4-fluorophenyl)amino)-2-oxo-1-phenylethyl 3-amino-6-(1-(1-(2-(1-(3-(2-(2,6-dioxopiperidin-3-yl)-1,3-dioxoisoindolin-5-yl)propanoyl)piperidin-4-yl)ethyl)piperidin-4-yl)-1H-pyrazol-4-yl)pyrazine-2-carboxylate]	0.61 nM	89.95%	82.82%			62.50%	27.37%
Nc1ncc(-c2cn(C3CCN(CC4CCN(C(=O)CNc5ccc6c(c5)C(=O)N(C5CCC(=O)NC5=O)C6=O)CC4)CC3)nn2)nc1C(=O)OC(C(=O)Nc1ccc(F)cc1)c1ccccc1 (stereo not shown) [TDH-223, 2-((4-fluorophenyl)amino)-2-oxo-1-phenylethyl 3-amino-6-(1-(1-((1-((2-(2,6-dioxopiperidin-3-yl)-1,3-dioxoisoindolin-5-yl)glycyl)piperidin-4-yl)methyl)piperidin-4-yl)-1H-1,2,3-triazol-4-yl)pyrazine-2-carboxylate]	23 nM	29.38%	12.51%			34.97%	23.64%
Nc1ncc(-c2cnn(C3CCN(C(=O)CCC4CCN(C(=O)C5CCN(c6ccc7nnn(C8CCC(=O)NC8=O)c(=O)c7c6)CC5)CC4)CC3)c2)nc1C(=O)O[C@@H](C(=O)Nc1ccc(F)cc1)c1ccccc1 (stereo partly drawn) [TDH-436, (R)-2-((4-fluorophenyl)amino)-2-oxo-1-phenylethyl 3-amino-6-(1-(1-(3-(1-(1-(3-(2,6-dioxopiperidin-3-yl)-4-oxo-3,4-dihydrobenzo[d][1,2,3]triazin-6-yl)piperidine-4-carbonyl)piperidin-4-yl)propanoyl)piperidin-4-yl)-1H-pyrazol-4-yl)pyrazine-2-carboxylate]	3.1 nM	85.98%	71.25%	41.81%	21.38%		
